Laboratory results taken from US3954793A, “1-(2-Propynyl)-1 H-indazole compounds” (priority 1973, dated 1976).

Assays:
[1] = tested on: Wilson strain house flies; format: in vivo, Wilson strain (susceptible); conditions: for Contact Synergistic Ratio, Pyrolan: LC50 pyrolan alone / LC50 with synergist, synergist to insecticide 5:1 by weight; for Contact Synergistic Ratio, Carbaryl: in vivo
Description: The required solutions of the insecticide and of the synergist compound were prepared in acetone at a concentration of 1 milligram per milliliter. One-pint wide mouth glass jars were coated with the appropriate insecticide-synergist combination by rolling the jars containing aliquots of the appropriate solutions diluted to three milliliters with acetone to deposit, by evaporation, a film of the test materials. The flies were transferred under carbon dioxide anesthesia and held in the jar at room temperature. Perforated aluminum foil was used to cover the jars and to hold cotton saturated with 10% sugar solution. Counts were made at intervals, but the recorded mortality was based on 24-hour kill, rather than knockdown. All prostrate non-moving flies were considered dead. A determination was then made of the contact synergistic ratio [SR], which is the ratio of the LC50 of insecticide alone to the LC50 of the insecticide when applied together with the synergist. The LC50 of the insecticide was estimated from a log-probit plot of percent kill versus dosage. […] The LC50 of the combination of insecticide and synergist was determined at a synergist to insecticide parts by weight ratio of five to one.

male mice = assay: extension of sleeping time of depressant drugs by synergists; format: in vivo, male mice (Swiss albino white); conditions: for Mean Sleeping Time, Noludar / Relative Sleeping Time, Noludar: Noludar 110 mg/kg; for Relative Sleeping Time, Noludar / Relative Sleeping Time, Secobarbital: treated/control; for Mean Sleeping Time, Secobarbital / Relative Sleeping Time, Secobarbital: Secobarbital 37 mg/kg
Description: The selectivity of the synergist compounds of this invention is illustrated by the results of sleeping-time extension tests and of acute toxicity tests on Swiss albino white male mice.
The effect of various synergist compounds on sleeping time of sodium secobarbital [Secobarbital] and of 3,3-diethyl-5-methyl-2,4-dioxypiperidine [Noludar] was determined by administering the drug, with and without synergist, to approximately 38-day old male mice weighing from 25 to 30 grams. Synergists were administered in each of two doses, 74.0 mg/kg (dilution being 2.0 mg/0.1 ml corn oil), and 110.0 mg/kg (dilution 3.0 mg/0.1 ml oil). Secobarbital was administered at a dose of 37.0 mg/kg (dilution 1.0 mg/0.1 ml water). Noludar was administered at a dose of 110.0 mg/kg (dilution 3.0 mg/0.1 ml water). The synergist was administered one hour prior to administration of the Secobarbital or Noludar. Secobarbital and Noludar sleeping times were obtained for both the control (drug only) and the treated (synergist plus drug) mice by noting the time lapse between the administration of the drug and the recovery of the righting reflex, i.e. when the animal regains conciousness and can walk up an inclined wooden tray with coordination. The relative sleeping time (R.S.) was noted. The R.S. is the extended sleeping time in the treated mice (synergist plus drug) divided by the sleeping time in the control mice (drug only). The mean sleeping time for the treated mice and the R.S. are shown on Table XXXXIV for various synergist compounds.

[2] = tested on: Swiss albino, white male mice; assay: acute toxicity and synergism of acute toxicity in mice; format: in vivo; conditions: 48 hours, eight mice
Description: To determine the acute toxicity of dimetilan alone, eight dosage levels of Dimetilan, ranging from 4 to 32 mg per kg were applied to eight, Swiss, albino, white, male mice per dosage level. The mice weighed approximately 23 to 27 grams and were five to six weeks old. The Dimetilan was administered intraperitoneally in 0.1 ml of corn oil one hour after the administration of the same dose of corn oil alone.
To determine the acute toxicity of the synergist alone, various synergists were administered intraperitoneally at a dose of 1000 mg/kg to each of a group of eight mice. The number of animals dead at the end of 72 hours is reported in the left hand column of Table XXXXVI.
The synergism of the acute toxicity of Dimetilan by various synergists was determined by tests on Swiss albino, white male mice aged five to six weeks and weighing 23 to 27 grams. The synergists and insecticides were dissolved in corn oil and the drugs were dissolved in distilled water. All compounds were administered intraperitoneally by injection in the lower quadrent of the abdomen. The synergist was administered in 0.1 ml of corn oil one hour prior to administration of the insecticide. Eight mice were treated, per dosage, with each synergist. The mice were watched for a minimum of 6 hours while held in a glass jar with bedding individually after intraperitoneal injection of the test solutions. Lethality was noted, the animals were weighed and transferred in cages, and food and water were supplied. Control mice were given 0.1 ml of corn oil at the time of administration of the synergist to the test mice and 0.1 ml corn oil plus Dimetilan at the time of administration of the insecticide to the test mice.
By the same procedure, the synergism of acute toxicity of GS 13005, Secobarbital and 6-dimethylamino-4,4-diphenyl-3-heptanone [Methadone] was determined.

[3] = tested on: IN/WHO strain house flies; assay: topical application, percent kill after 24 hours, susceptible IN/WHO strain; format: in vivo, female); conditions: Pyrolan 0.63 μg/fly
Description: (§1) In Table IX, and in the tables following it, the doses of topically applied insecticides and of synergists unless otherwise noted are expressed as micrograms per fly (μg/fly).
The synergistic effect of O-(2-propynyl) oximes with mobam was determined from topical application tests on susceptible, female, IN/WHO strain house flies and from tests on resistant, female, Rutgers A strain house flies. The synergist and insecticide were dissolved in ACS Grade acetone in such quantities that a 1.0 μ liter volume applied to the thorax of 3-to-5 day old CO2 -anesthetized female adult house flies contained the desired dosage. After being treated, the flies were confined, 10 to a plaster petri dish, with 3-5 dishes/treament, and held for 24-hr. observation of mortality. Reconstituted skim milk on cotton dental wicks was provided during the holding period. The percent kills after 24 hours are shown in Table X for the IN/WHO strain and Table XI for the Rutgers A strain.
The synergistic effect of benzyl 2-propynyl ethers with mobam was determined from topical application tests on IN/WHO and Rutgers A strain houseflies, following the procedure of Example 5. The percent kills after 24 hours are shown in Table XIV for the IN/WHO strain and in Table XV for the Rutgers A strain.
The effects of varying the insecticide dose and the synergist-insecticide ratio are further illustrated, with synergist compounds II-D, II-E, II-F and Mobam insecticide, in Tables XVI, XVII and XVIII. […]
The effect on IN/WHO flies of synergist compound IV-C, identified in Table IV, with mobam was determined by the topical application procedure of Example 5. […]
(§2) The synergistic effect with GS 13005 of compounds I-A, I-B, I-D, I-E, I-F, I-G and I-I was determined from topical application tests to IN/WHO strain, Rutgers A strain and polyvalent CH strain houseflies using the procedures of Example 5. The percent kills of the IN/WHO strain flies after 24 hours are shown in Table XXVIII; of the Rutgers A strain, in Table XXIX; and of the polyvalent CH strain, in Table XXX. The doses of insecticide alone to the CH strain files caused 10-40% mortality.
The synergistic effect with Diazinon and GS 13005 of various of the benzyl 2-propynyl ethers identified in Tables II and IIa was determined by topical application tests on IN/WHO strain, and Rutgers A strain and polyvalent, resistant, CH strain houseflies using the procedures of Example 5. The percent kills after 24 hours of IN/WHO strain flies are shown in Table XXXI; of Rutgers A strain flies, in Table XXXII; and of CH strain flies, in Table XXXIII. The doses of insecticide alone to the CH strain flies caused 10-40% mortality. […]
The synergistic effect on IN/WHO strain flies and Rutgers A strain flies of compound IV-C with GS 13005 and with Diazinon was determined by the topical application procedure of Example 5. The percent kills of IN/WHO strain flies after 24 hours are shown in Tables XXXVI and XXXVII; the percent kills of Rutgers A strain flies are shown in Tables XXXVIII and XXXIX.

[4] = tested on: polyvalent resistant (CH strain) houseflies; assay: whole plant or invertebrate; format: in vivo; conditions: insecticide alone at the doses of the CH strain tables; 1440 min
Description: The effect of O-(2-propynyl) oximes with Dimetilan and with GS 13798 was obtained from tests on polyvalent resistant (CH strain) houseflies that had been chilled and to the dorsal region of which was applied an acetone solution of synergist and insecticide at a ratio of two to one. Duplicate tests were performed using 10 four to five-day old female houseflies per test. After dosage, the flies were put in a plastic petri dish with cotton soaked in a sugar-water solution. These doses of insecticide used without synergist caused 10-40% mortality.
as §1
The effect of compounds II-C, II-D and II-E with Dimetilan and GS 13798 was determined, following the procedure of Example 5, from tests on polyvalent resistant (CH strain) houseflies. These doses of insecticide used without synergist caused 10-40% mortality.
as §2
The synergistic effect with Diazinon and GS 13005 of various of the benzyl 2-propynyl ethers identified in Tables II and IIa was determined by topical application tests on IN/WHO strain, and Rutgers A strain and polyvalent, resistant, CH strain houseflies using the procedures of Example 5. The percent kills after 24 hours of IN/WHO strain flies are shown in Table XXXI; of Rutgers A strain flies, in Table XXXII; and of CH strain flies, in Table XXXIII. The doses of insecticide alone to the CH strain flies caused 10-40% mortality.
The synergistic effect with pyrethrum of various synergist compounds was determined by topical application tests on polyvalent, resistant CH strain houseflies following the procedure of Example 5. Application of the insecticide alone caused 10-40% mortality.

[5] = synergist 110 mg/kg one hour prior
[6] = Dimetilan 8 + synergist 240 mg/kg i.p.
[7] = synergist 74 mg/kg one hour prior

SMILES	Contact Synergistic Ratio, Pyrolan [1]	Contact Synergistic Ratio, Carbaryl [1]	Mean Sleeping Time, Noludar (male mice; [5])	Relative Sleeping Time, Noludar (male mice; synergist 110 mg/kg)	Mean Sleeping Time, Secobarbital (male mice; [5])	Relative Sleeping Time, Secobarbital (male mice; synergist 110 mg/kg)	number of mice dead, with Dimetilan [2, 6]	Mean Sleeping Time, Secobarbital (male mice; [7])	Relative Sleeping Time, Secobarbital (male mice; synergist 74 mg/kg)	number of mice dead, with Dimetilan ([2]; Dimetilan 8 + synergist 80 mg/kg i.p.)	LC50 of insecticide alone ([1]; Wilson strain fly, 24-hour kill, no synergist)	24 hour percent mortality, Pyrolan alone [3]	mortality, insecticide used without synergist [4]
C#CCn1nc(Cl)c2ccccc21 [III-B]	30	117	46 min	1.0	66 min	1.3	0	–	–	–	–	–	–
C#CCOC(c1ccc(Cl)cc1Cl)C(C)[N+](=O)[O-] (stereo not shown) [IV-A, 2-propynyl 1-(2,4-dichlorophenyl)-2-nitropropyl ether]	10	134	78 min	2.7	–	–	7	56 min	2.3	4	–	–	–
C#CCON=Cc1ccc(N(C)C)cc1 [I-C]	20	200	34 min	1.0	108 min	1.8	0	30 min	1.1	–	–	–	–
C#CCn1ncc2ccc(Cl)cc21 [III-D]	25	250	45 min	1.5	55 min	1.2	1	–	–	–	–	–	–
Cc1cc(OC(=O)N(C)C)n(-c2ccccc2)n1 [Pyrolan, 3-methyl-1-phenyl-5-pyrazolyl-N-dimethylcarbamate, reference compound]	–	–	–	–	–	–	–	–	–	–	0.15 mg/jar	0%	–
C#CCOC(c1cccc2ccccc12)C(C)[N+](=O)[O-] (stereo not shown) [IV-B, 2-propynyl 1-naphthyl-2-nitropropyl ether]	10	50	–	–	–	–	–	–	–	–	–	–	–
CNC(=O)Oc1cccc2ccc(C)nc12 [GS 13798, 8-(2-methylquinolyl)-N-methylcarbamate, reference compound]	–	–	–	–	–	–	–	–	–	–	–	–	10-40%
C#CCn1ncc2cc([N+](=O)[O-])ccc21 [III-A]	30	143	32 min	1.0	50 min	1.1	0	–	–	–	–	–	–
